This is an account of results in patent US20260224590A1 (priority 2023, published 2026).

For data set [1], the system named is C57BL/6 mice, corticosterone in drinking water. The data set can be described thus: tail suspension test after 21 days of corticosterone exposure. The class given is in vivo. To be noted: corticosterone model. On the procedure: Antidepressant efficacy test method: Male C57BL/6 mice (8 weeks old, purchased from Shanghai Lingchang Biotech Co., Ltd.) were administered a solution of corticosterone in their drinking water at a concentration of 25 μg/mL using drinking water bottles for 21 days. Mice were maintained on a 12-hour light cycle. Corticosterone-containing drinking water was refreshed every other day for the first two weeks, and gradually replaced with corticosterone-free drinking water every two days for the last week. […] TST procedure: mice in the control group and the administration group were suspended by their tails with tape for 6 minutes, and their behavior was recorded by a video camera. The immobility time during the last 4 minutes was manually timed and assessed by an observer who was unaware of the treatment conditions.

The test system of the next data set is C57BL/6J mice. The data set can be described thus: head-twitch response in mice (hallucinogenic effects). The conditions noted are these: intraperitoneal injection, first 30 minutes, all doses tested. The class given is in vivo. An excerpt: Method: The head-twitch response in mice was detected via oscillatory signals to characterize hallucinogenic effects. Mice (strain C57BL/6J, purchased from Shanghai Lingchang Biotech Co., Ltd.) were anesthetized with 2% isoflurane. A small portion of the scalp was removed from the center of the dorsal cranium. A custom-made small neodymium magnet (4 mm×4 mm×2 mm) was attached to the center of the dorsal cranium using dental resin. The magnet N-S poles were kept parallel to the dorsoventral aspect of the implant. The mice were allowed to recover for 1 week before testing. To record precise head movements, the mice were placed in a glass beaker with a diameter of 12 cm, surrounded by 150 turns of #30 enameled copper wire. The output signal from the coil was recorded using a PowerLab/4SP instrument installed with LabChart V8.1.16 software. Coil voltage was amplified, low-pass filtered at 10 kHz to remove radio frequency interference, and sampled at 40 kHz. For the detection of head-twitch response in mice, LabChart data were processed with a digital band-pass filter at 40 to 200 Hz. The head-twitch response in mice was identified by searching for sinusoidal wavelets that met the following criteria: 1) containing more than two bipolar peaks; 2) amplitude exceeding background noise level; 3) duration less than 120 milliseconds. 1 hour prior to the test, the mice were transferred to the test room for acclimatization. Subsequently, the mice were placed in the beaker for 30 minutes, and baseline head-twitch response values were recorded. Immediately after baseline recording, the mice were injected intraperitoneally with the test compound, and head-twitch response values were recorded for 1 to 2 hours post-dose, depending on the compound used. Statistical values were taken from the first 30 minutes.

Another data set has as its target 5-HT2A receptor (Homo sapiens, UniProt P28223). The data set can be described thus: 5-HT2A receptor downstream β-arrestin2 recruitment in HEK-293T cells. The arrangement: expressed in transfected cells; host or cells: HEK-293T (ATCC, CRL-11268). Type of data set: cell-based. To be noted: HEK-293T; percentage printed in parentheses beside the nM value, not defined. On the procedure: On the second day, the confluent cells from a 6 cm culture dish were digested and reseeded into a 96-well plate at a volume of 100 μL of culture medium per well. On the third day, the drugs were added for testing. The 96-well plate was taken out from the cell incubator to decant the culture medium. 40 μL of the substrate coelenterazine 400a (final concentration 5 μM) was added to each well, and then 20 μL of different drugs were added sequentially from left to right, ensuring that the final concentration of the drug decreased gradually from bottom to top, with two replicates per treatment. Finally, the prepared samples were loaded on a plate reader for signal quantification. The readout values reflected the recruitment of β-arrestin2 to the membrane or the dissociation of G protein trimer. The former indicated the degree of activation of the downstream β-arrestin2 signaling pathway mediated by the 5-HT2A receptor, and the latter indicated the degree of activation of the downstream G protein signaling pathway mediated by the 5-HT2A receptor.

The nature of a further data set: in vivo. To be noted: male, C57, mouse, plasma, ip, 5 mg/kg.

5-HT2A receptor, sequence (P28223 whole entry): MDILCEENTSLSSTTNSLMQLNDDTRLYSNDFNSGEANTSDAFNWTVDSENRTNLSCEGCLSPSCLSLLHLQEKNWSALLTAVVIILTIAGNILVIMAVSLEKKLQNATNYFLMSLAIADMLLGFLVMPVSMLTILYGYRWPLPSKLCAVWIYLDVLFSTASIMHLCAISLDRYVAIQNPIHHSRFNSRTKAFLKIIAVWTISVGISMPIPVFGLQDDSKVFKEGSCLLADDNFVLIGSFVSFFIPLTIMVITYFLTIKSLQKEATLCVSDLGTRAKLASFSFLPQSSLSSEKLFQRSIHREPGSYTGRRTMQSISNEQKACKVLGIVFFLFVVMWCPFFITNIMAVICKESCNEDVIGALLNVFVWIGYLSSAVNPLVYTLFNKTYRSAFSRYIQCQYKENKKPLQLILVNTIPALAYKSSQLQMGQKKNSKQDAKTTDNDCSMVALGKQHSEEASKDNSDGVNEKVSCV
Experimental for in vivo: The concentration of the compound in mouse plasma was determined using LC-MS/MS, and the relevant pharmacokinetic parameters were calculated to investigate the pharmacokinetic characteristics of the compound in mice.
Experimental design: 60 male C57 mice (purchased from Suzhou JOINN Laboratory Animal Co., Ltd.) were randomly divided into groups based on weight, with 3 mice per group. The mice were fasted with water ad libitum for 12 to 14 hours one day before test-article administration and fed 4 hours after the administration. The route of administration was intraperitoneal (IP), with a dosing concentration of 1 mg/mL, and a solvent formulation of 10% DMSO+90% saline.
Sample collection: 0.1 mL of blood was collected from the orbit under isoflurane anesthesia before and after test-article administration, transferred to EDTA K2 tubes, and placed on an ice bath. The samples were centrifuged at 5000 rpm for 10 minutes at 4° C., and the plasma was collected. […] Prior to analysis, all plasma samples were stored at −80° C.
Data processing: Drug concentrations in plasma and brain tissues were measured using LC-MS (API4000QTRAP triple quadrupole tandem mass spectrometer, equipped with an electrospray ionization source (ESI)). The data collection and control system software utilized was Analyst 1.5.1 (Applied Biosystems). The sample peak integration in the spectrum was conducted automatically; the ratio of the sample peak area to the internal standard peak area was used as an indicator to perform regression with the concentration of the sample. Regression method: Linear regression with a weighting factor of 1/X^2. Pharmacokinetic parameters were analyzed using a non-compartmental model in WinNonlin Professional v6.3 (Pharsight, USA). Cmax is the measured maximum plasma concentration, the area under the plasma concentration-time curve (AUC(0→t)) was calculated by the trapezoidal method, and Tmax is the time to reach peak plasma concentration after administration. Experimental data are presented as “Mean±Standard Deviation” (Mean±SD, n≥3) or “Mean” (n=2).

Take `COc1ccccc1CCCN1CCC2C(C1)c1cccc3c1N2CCO3` (single isomer, unassigned) [I-23]: the “antidepressant effect in the mouse tail suspension test” value in data set [1] (10 mg/kg single injection, after 7 days) is listed as “remained significant”; in data set [1] (10 mg/kg single injection, after 14 days) it was “remained significant”; in data set [1] (one day after a single administration), “significant antidepressant effect”. In the data set with C57BL/6J mice, the “hallucinogenic effects (head-twitch response)” value is listed as “did not induce hallucinogenic effects”. Moreover, the “β-arrestin2 signaling agonistic activity (% in parentheses)” value at 5-HT2A receptor is listed as “(51.6%)”. Also, the AUC0-inf in “in vivo” came out at 540 ng·h/mL.
